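Growth conditions: 96-well plates. Treatment: test compound, 48 hours, 5 concentrations. Analysis: linear interpolation between bracketing concentrations; unreached endpoints set to highest concentration. Here, GI50 denotes the concentration required for 50% inhibition of growth. TGI denotes the concentration required for complete inhibition of growth.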
Key:
Experiment in all cases: DTP human tumour cell line panel, 48 h
HS 578T breast = system: HS 578T breast
OVCAR-3 ovarian = system: OVCAR-3 ovarian
U251 CNS = system: U251 CNS
OVCAR-4 ovarian = system: OVCAR-4 ovarian
MDA-MB-435 = system: MDA-MB-435
CAKI-1 renal = system: CAKI-1 renal
HL-60(TB) leukemia = system: HL-60(TB) leukemia
PC-3 prostate = system: PC-3 prostate
MALME-3M melanoma = system: MALME-3M melanoma
KM12 colon = system: KM12 colon
MOLT-4 leukemia = system: MOLT-4 leukemia
HOP-62 NSCLC = system: HOP-62 NSCLC
OVCAR-8 ovarian = system: OVCAR-8 ovarian
M14 melanoma = system: M14 melanoma
RXF 393 renal = system: RXF 393 renal
EKVX NSCLC = system: EKVX NSCLC
K-562 leukemia = system: K-562 leukemia
A549 NSCLC = system: A549 NSCLC
NCI-H460 lung = system: NCI-H460 lung
MCF7 breast = system: MCF7 breast
T-47D breast = system: T-47D breast
SK-MEL-28 melanoma = system: SK-MEL-28 melanoma
SNB-19 CNS = system: SNB-19 CNS
MDA-MB-231 breast = system: MDA-MB-231 breast
NCI-H522 lung = system: NCI-H522 lung
SK-MEL-5 melanoma = system: SK-MEL-5 melanoma
HOP-92 NSCLC = system: HOP-92 NSCLC
HT29 colon = system: HT29 colon
SNB-75 CNS = system: SNB-75 CNS
SK-MEL-2 melanoma = system: SK-MEL-2 melanoma
HCT-15 colon = system: HCT-15 colon
SF-295 CNS = system: SF-295 CNS
SN12C renal = system: SN12C renal
A498 renal = system: A498 renal
UACC-257 melanoma = system: UACC-257 melanoma
NCI-H23 lung = system: NCI-H23 lung
SK-OV-3 ovarian = system: SK-OV-3 ovarian
HCT-116 colon = system: HCT-116 colon
UO-31 renal = system: UO-31 renal
IGROV1 ovarian = system: IGROV1 ovarian
RPMI-8226 leukemia = system: RPMI-8226 leukemia
DU-145 prostate = system: DU-145 prostate
SW-620 colon = system: SW-620 colon
TK-10 renal = system: TK-10 renal
SR leukemia = system: SR leukemia
NCI/ADR-RES ovarian = system: NCI/ADR-RES ovarian
SF-268 CNS = system: SF-268 CNS
BT-549 breast = system: BT-549 breast
ACHN renal = system: ACHN renal
NCI-H226 lung = system: NCI-H226 lung
SF-539 CNS = system: SF-539 CNS
OVCAR-5 ovarian = system: OVCAR-5 ovarian
COLO 205 colon = system: COLO 205 colon
UACC-62 melanoma = system: UACC-62 melanoma
786-0 renal = system: 786-0 renal
CCRF-CEM leukemia = system: CCRF-CEM leukemia
HCC-2998 colon = system: HCC-2998 colon
LOX IMVI melanoma = system: LOX IMVI melanoma

O=C(COc1ccc(Cl)c(Cl)c1)Nc1ccc[n+](Cc2ccc(S(=O)(=O)F)c(Cl)c2)c1
TGI (HS 578T breast): > 100 µM | TGI (OVCAR-3 ovarian): > 100 µM | TGI (U251 CNS): > 100 µM | TGI (OVCAR-4 ovarian): > 100 µM | TGI (MDA-MB-435): > 100 µM | TGI (CAKI-1 renal): > 100 µM | TGI (HL-60(TB) leukemia): > 100 µM | TGI (PC-3 prostate): > 100 µM | TGI (MALME-3M melanoma): > 100 µM | TGI (KM12 colon): > 100 µM | TGI (MOLT-4 leukemia): > 100 µM | TGI (HOP-62 NSCLC): > 100 µM | TGI (OVCAR-8 ovarian): > 100 µM | TGI (M14 melanoma): > 100 µM | TGI (RXF 393 renal): > 100 µM | TGI (EKVX NSCLC): > 100 µM | TGI (K-562 leukemia): > 100 µM | TGI (A549 NSCLC): > 100 µM | TGI (NCI-H460 lung): > 100 µM | TGI (MCF7 breast): > 100 µM | TGI (T-47D breast): > 100 µM | TGI (SK-MEL-28 melanoma): > 100 µM | TGI (SNB-19 CNS): > 100 µM | TGI (MDA-MB-231 breast): > 100 µM | TGI (NCI-H522 lung): > 100 µM | TGI (SK-MEL-5 melanoma): > 100 µM | TGI (HOP-92 NSCLC): > 100 µM | TGI (HT29 colon): > 100 µM | TGI (SNB-75 CNS): > 100 µM | TGI (SK-MEL-2 melanoma): > 100 µM | TGI (HCT-15 colon): > 100 µM | TGI (SF-295 CNS): > 100 µM | TGI (SN12C renal): > 100 µM | TGI (A498 renal): > 100 µM | TGI (UACC-257 melanoma): > 100 µM | TGI (NCI-H23 lung): > 100 µM | TGI (SK-OV-3 ovarian): > 100 µM | TGI (HCT-116 colon): > 100 µM | TGI (UO-31 renal): > 100 µM | TGI (IGROV1 ovarian): > 100 µM | TGI (RPMI-8226 leukemia): 65.4 µM | TGI (DU-145 prostate): > 100 µM | TGI (SW-620 colon): > 100 µM | TGI (TK-10 renal): > 100 µM | TGI (SR leukemia): > 100 µM | TGI (NCI/ADR-RES ovarian): > 100 µM | TGI (SF-268 CNS): > 100 µM | TGI (BT-549 breast): > 100 µM | TGI (ACHN renal): > 100 µM | TGI (NCI-H226 lung): > 100 µM | TGI (SF-539 CNS): > 100 µM | TGI (OVCAR-5 ovarian): > 100 µM | TGI (COLO 205 colon): > 100 µM | TGI (UACC-62 melanoma): > 100 µM | TGI (786-0 renal): > 100 µM

CC(C)(C)C(=O)OCOP(=O)(NCc1ccccc1)C1CCCN(O)C1=O (centres undefined)
GI50 (HS 578T breast): 1.28 µM | TGI (HS 578T breast): 6.64 µM | GI50 (OVCAR-3 ovarian): 1.04 µM | TGI (OVCAR-3 ovarian): 9 µM | GI50 (U251 CNS): 2.45 µM | TGI (U251 CNS): > 100 µM | GI50 (OVCAR-4 ovarian): 2.1 µM | TGI (OVCAR-4 ovarian): 71.9 µM | GI50 (MDA-MB-435): 4.09 µM | TGI (MDA-MB-435): 71.9 µM | GI50 (CAKI-1 renal): 3.5 µM | TGI (CAKI-1 renal): > 100 µM | GI50 (HL-60(TB) leukemia): 3.59 µM | TGI (HL-60(TB) leukemia): 13.7 µM | GI50 (PC-3 prostate): 5.08 µM | TGI (PC-3 prostate): > 100 µM | GI50 (MALME-3M melanoma): 1 µM | TGI (MALME-3M melanoma): 6.96 µM | GI50 (KM12 colon): 1.13 µM | TGI (KM12 colon): 3.56 µM | GI50 (MOLT-4 leukemia): 2.61 µM | TGI (MOLT-4 leukemia): 14.4 µM | GI50 (HOP-62 NSCLC): 2.55 µM | TGI (HOP-62 NSCLC): 32.8 µM | GI50 (OVCAR-8 ovarian): 1.17 µM | TGI (OVCAR-8 ovarian): > 100 µM | GI50 (M14 melanoma): 2.91 µM | TGI (M14 melanoma): 18.7 µM | GI50 (RXF 393 renal): 1.76 µM | TGI (RXF 393 renal): 6.48 µM | GI50 (EKVX NSCLC): 3.91 µM | TGI (EKVX NSCLC): 78.8 µM | GI50 (K-562 leukemia): 1.13 µM | TGI (K-562 leukemia): > 100 µM | GI50 (A549 NSCLC): 2.79 µM | TGI (A549 NSCLC): > 100 µM | GI50 (NCI-H460 lung): 1.75 µM | TGI (NCI-H460 lung): 15.5 µM | GI50 (MCF7 breast): 2.41 µM | TGI (MCF7 breast): 11.1 µM | GI50 (T-47D breast): 1.98 µM | TGI (T-47D breast): 57.6 µM | GI50 (CCRF-CEM leukemia): 0.558 µM | TGI (CCRF-CEM leukemia): > 100 µM | GI50 (SK-MEL-28 melanoma): 1.74 µM | TGI (SK-MEL-28 melanoma): 5.68 µM | GI50 (SNB-19 CNS): 3.12 µM | TGI (SNB-19 CNS): 24.9 µM | GI50 (MDA-MB-231 breast): 2.3 µM | TGI (MDA-MB-231 breast): 19.9 µM | GI50 (NCI-H522 lung): 1.78 µM | TGI (NCI-H522 lung): 21.9 µM | GI50 (SK-MEL-5 melanoma): 1.76 µM | TGI (SK-MEL-5 melanoma): 4.33 µM | GI50 (HOP-92 NSCLC): 1.06 µM | TGI (HOP-92 NSCLC): 7.72 µM | GI50 (HT29 colon): 3.35 µM | TGI (HT29 colon): 61.9 µM | GI50 (SNB-75 CNS): 4.97 µM | TGI (SNB-75 CNS): 39.1 µM | GI50 (SK-MEL-2 melanoma): 2.85 µM | TGI (SK-MEL-2 melanoma): 15.6 µM | GI50 (HCT-15 colon): 2.75 µM | TGI (HCT-15 colon): 25.9 µM | GI50 (SF-295 CNS): 3.23 µM | TGI (SF-295 CNS): 29.5 µM | GI50 (HCC-2998 colon): 2.37 µM | TGI (HCC-2998 colon): 12 µM | GI50 (SN12C renal): 0.752 µM | TGI (SN12C renal): 9.21 µM | GI50 (A498 renal): 0.692 µM | TGI (A498 renal): 9.18 µM | GI50 (UACC-257 melanoma): 5.11 µM | TGI (UACC-257 melanoma): 55.4 µM | GI50 (NCI-H23 lung): 2.77 µM | TGI (NCI-H23 lung): 13.4 µM | GI50 (HCT-116 colon): 2.84 µM | TGI (HCT-116 colon): 14.4 µM | GI50 (UO-31 renal): 0.349 µM | TGI (UO-31 renal): 2.99 µM | GI50 (IGROV1 ovarian): 2.91 µM | TGI (IGROV1 ovarian): 9.59 µM | GI50 (RPMI-8226 leukemia): 2.25 µM | TGI (RPMI-8226 leukemia): 7.28 µM | GI50 (DU-145 prostate): 4.03 µM | TGI (DU-145 prostate): > 100 µM | GI50 (SW-620 colon): 2.87 µM | TGI (SW-620 colon): > 100 µM | GI50 (TK-10 renal): 3.12 µM | TGI (TK-10 renal): 43.2 µM | GI50 (SR leukemia): 0.985 µM | TGI (SR leukemia): > 100 µM | GI50 (NCI/ADR-RES ovarian): 2.03 µM | TGI (NCI/ADR-RES ovarian): 6.65 µM | GI50 (SF-268 CNS): 2.09 µM | TGI (SF-268 CNS): > 100 µM | GI50 (BT-549 breast): 5.81 µM | TGI (BT-549 breast): 53.4 µM | GI50 (ACHN renal): 2.5 µM | TGI (ACHN renal): 67.4 µM | GI50 (NCI-H226 lung): 0.462 µM | TGI (NCI-H226 lung): 3.43 µM | GI50 (SF-539 CNS): 3.2 µM | TGI (SF-539 CNS): 16.5 µM | GI50 (LOX IMVI melanoma): 2.85 µM | TGI (LOX IMVI melanoma): 15.8 µM | GI50 (OVCAR-5 ovarian): 8.99 µM | TGI (OVCAR-5 ovarian): > 100 µM | GI50 (COLO 205 colon): 2.47 µM | TGI (COLO 205 colon): 13.7 µM | GI50 (UACC-62 melanoma): 2.22 µM | TGI (UACC-62 melanoma): 6.49 µM | GI50 (786-0 renal): 3.15 µM | TGI (786-0 renal): > 100 µM

Reference: PubChem BioAssay (NCI)
